Legend:
[1] = system: gMDSC differentiation in bone marrow cells; test: In vitro screening of gMDSC differentiation in bone marrow cells (GM-CSF/G-CSF, flow cytometry); type: cell-based, mouse; conditions: GM-CSF, 3 days, flow cytometry (Ly6c+Ly6g+CD11b+)
Procedure: BALB/c mice were euthanized by CO2 asphyxiation. The femur bones were carefully resected under sterile conditions, cleaned to remove the attached muscle/tissue, and cleaned with 70% ethanol. The bones were then transferred on to a sterile Petri dish with culture medium Roswell Park Memorial Institute (RPMI)-1640. Both ends of femurs were carefully trimmed using sterile, sharp scissors to expose the interior marrow shaft. The contents of marrow were flushed with 2-4 ml of culture medium (RPMI-1640 supplemented with 10% FBS) using 1-ml insulin syringe with a 29G×½ needle. Later, the bone marrow was flushed out onto a 70 μm nylon cell strainer placed in a 50 ml Falcon conical tube (The bones should appear white once all the marrow has been expelled out completely). The collected BM cell suspension was further diluted with 20 ml of phosphate buffer saline (PBS), and the cell suspension was centrifuged at 1,000 rpm […]. The supernatant and the cell pellet were collected using red blood cell (RBC) lysis buffer and incubated for 5 minutes. 5-10 mL of PBS was added, and the solution was centrifuged at 1,000 rpm for 5 minutes. The supernatant was discarded and the cell pellet was washed with PBS, and re-centrifuged at 1,000 rpm for 5 minutes. The cells were re-suspended with RPMI medium containing 10% FBS and used for assays or culture.
Computational screening of certain select NCI chemical library was performed again the crystal structure of calprotectin. 40 lead compounds were identified with potential to bind to calprotectin and suppress gMDSC differentiation. In vitro screening using the 40 lead compounds was performed. Bone marrow cells were counted using hemocytometer or Beckman Z2 coulter counter and suspended in culture medium (RPMI 1640+10% FBS+1% penicillin/streptomycin) to achieve a final cell density of 2×10^6 BM cells/well. T20 ng/mL of recombinant mouse GM-CSF (Granulocyte Macrophage—Colony Stimulating Factor Protein) was added followed by 50 ng/mL G-CSF or individual selected drug. […]

[2] = system: MDSC-related genes in bone marrow cells; test: Expression of MDSC-related genes in bone marrow cells treated with GCSF and compound; type: cell-based, mouse
Description: FIG. 13A is a bar graph showing Ly6c+Ly6g+CD11b+gMDSCs differentiation in vitro in bone marrow cells treated with GCSF and the lead NCI compounds identified by computational screen against S100A8/A9 (calprotectin). FIGS. 13B-13K are representative flow cytometry plots showing the expression of CD11b and Ly6C in bone marrow cells treated with compounds 4, 10, 13, and 15. FIGS. 13L-13R are bar graphs showing the expression of MDSC-related genes (S100A8, FIG. 13L; S100A9, FIG. 13M; GCSF, FIG. 13N; IL1A, FIG. 13O; NOS2, FIG. 13P; CYB1, FIG. 13Q; and IL4R, FIG. 13R) in bone marrow cells treated with GCSF (black bars), GCSF+#4 (dark gray bars), GCSF+#10 (light gray bars), or untreated (white bars).
P values<0.05 were considered statistically significant.

4T1 tumor = test: Metastatic 4T1-injected mice treated with drug #10 (bioluminescence imaging, MDSC infiltration); type: in vivo, mouse
Description: FIG. 14A-14D are bioluminescence images of metastatic 4T1-injected mice untreated or treated with drug #10. FIG. 14E-14H are bar graphs showing the extent of mMDSC infiltration in the primary tumor (FIG. 14H) and the BM (FIG. 14E), spleen (FIG. 14F), and lung (FIG. 14G) of metastatic 4T1-injected mice untreated (black bars) or treated with drug #10 (gray bars). FIG. 14I-14L are bar graphs showing the extent of gMDSC infiltration in the primary tumor (FIG. 14L) and the BM (FIG. 14I), spleen (FIG. 14J), and lung (FIG. 14K) of metastatic 4T1-injected mice untreated (black bars) or treated with drug #10 (gray bars).
Luciferase expressing 4T1 or EMT6 murine breast cancer cells (50,000 cells per mice) were orthotopically implanted into the fat pads of 5-week-old BALB/c mice. (AT-3 cells in C57BL/J6 mice) and these mice were imaged utilizing the Caliper IVIS imaging systems. To analyse MDSCs, tumor-bearing mice were sacrificed every week and single-cell suspensions were prepared from bone marrows, spleens, lungs and tumor tissues. Bone marrow cells were obtained by flushing bones with PBS using a 28G 1/2 syringe. […]
These cells were labeled with fluorescence-conjugated Ly6C (#128015-dilution 1/400), Ly6G (#127605-dilution 1/100) and CD11b (#101208-Dilution 1/200) antibodies (Biolegend) and analyzed on a FACS canto flow cytometer (BD Biosciences).

[3] = system: EMT6 cells co-cultured with mMDSCs; test: EMT6 cells co-cultured with mMDSCs and NOS2 inhibitor 1400W (qPCR, Western blot); type: cell-based, mouse
Procedure: (§1) FIGS. 5A-5D are bar graphs showing expression of IL6 (FIG. 5A), IL1A (FIG. 5B), TGFB (FIG. 5C), and Vimentin (FIG. 5D) in EMT6 cells (white bars), EMT6 cells+0.5 mM DPTA (gray bars), and EMT6 cells+2.5 mM DPTA (black bars). FIG. 5E-5H are bar graphs showing expression of IL6 (FIG. 5E), IL1A (FIG. 5F), TGFB (FIG. 5G), and Vimentin (FIG. 5H) in EMT6 cells (white bars), EMT6 cells+mMDSCs (gray bars), and EMT6 cells+mMDSCs/1400W (black bar). FIG. 5I is a representative Western blot showing pSTAT3, STAT3, pSTAT1, STAT1, Vimentin, Twist, and actin expression in untreated EMT6 cell, or EMT6 cells treated with 0.5 mM or 2.5 mM DPTA, mMDSCs, or mMDSCs+1400W.
(§2) For RT-PCR analyses, KiCqStart SYBR Green predesigned primers (Sigma) were used for the following genes: […]
(§3) The relative fold change was measured by 2-ΔΔCt formula compared to the control cells. Means and differences of the means with 95% confidence intervals were obtained using GraphPad Prism (GraphPad Software Inc.). Two-tailed Student's t-test was used for unpaired analysis comparing average expression between conditions. P values<0.05 were considered statistically significant.

EMT6 cells = system: EMT6 cells
Procedure: as §1, §2, §3

T cell proliferation = test: In vitro suppression: bone marrow cells treated with recombinant protein plus GM-CSF, then co-incubated with activated CFSE labeled T cells; type: cell-based, mouse; conditions: 7 days, then 3 days with activated CFSE labeled T cells
Procedure: (§4) In vitro suppression: Multigrams of recombinant Calprotectin, S100A8 and S100A9 proteins were isolated, purified and confirmed for their activity with commercially available proteins. Bone marrow cells were treated with recombinant S100A8 (A8), S100A(9) or Calprotectin (CALP) in presence of GM-CSF (Granulocyte Macrophage-Colony Stimulating Factor Protein) in vitro for 7 days for gMDSC differentiation. The cells were then co-mixed and incubated 3 more days with activated CFSE labeled T cells.
as §4, with “Multigrams” for “In vitro suppression: Multigrams”, “recombinant S10A8” for “recombinant S100A8”, “(Granulocyte Macrophage—Colony” for “(Granulocyte Macrophage-Colony”

EMT6-Luc tumor = test: In vivo gMDSC induction: EMT6-Luc tumor model in BALB/c mice injected with recombinant protein; parameters: species or system mouse; conditions: for tumor cell killing activity of T cells from treated mice (annexin V+ cells): compared to control treated mice; for levels of caspase 3 mediated apoptosis: treated mice versus saline
Procedure: (§5) In vivo gMDSC induction: EMT6 tumor model was selected as platform to examine the role of the proteins in regulation gMDSCs and the resultant metastatic cascade. EMT6-Luc cells were implanted into the mammary fat pads of BALB/c mice (purchased from Charles Rivers at NCI). The mice were then injected (via tail vein) either with saline (control), recombinant S100A9 or Calprotectin (100 ng/mouse) every alternate day for three weeks.
as §5, with “EMT6” for “In vivo gMDSC induction: EMT6”

[4] = 100 ng/mouse via tail vein every alternate day for three weeks

## O=C1c2cccc(Oc3ccccc3)c2C(=O)c2cccc(Oc3ccccc3)c21 [compound 4, 1,5-diphenoxyanthracen-9-10-dione]
[1]
  inhibition of gMDSC differentiation: significant inhibition of gMDSC differentiation
[2]
  expression of MDSC-related genes S100A8, S100S9, GCSF, IL1A, NOS2, CYBB1, and IL4R: reduced the expression

## CC12CCC3C(CCC4Cc5[nH]c6ccccc6c5CC43C)C1CCC2O (stereo not shown) [compound 10, 12a,14a-dimethyl-1,2,3,3a,3b,4,5,5a,6,7,12,12a,12b,13,14,14a-hexadecahydrocyclopenta[5,6]naphtho[2,1-b]carbazol-1-ol]
[1]
  inhibition of gMDSC differentiation: significant inhibition of gMDSC differentiation
[2]
  expression of MDSC-related genes S100A8, S100S9, GCSF, IL1A, NOS2, CYBB1, and IL4R: reduced the expression
4T1 tumor; bioluminescence images
  tumor growth and metastasis: suppresses tumor growth and metastasis
4T1 tumor; primary tumor, BM, spleen, lung
  gMDSC infiltration into the tumor and distant organ sites: reduce gMDSC infiltration

## O=[N+]([O-])C1C(c2ccccc2)C12c1ccccc1-c1ccccc12 (stereo not shown) [compound 27]
[1]
  inhibition of gMDSC differentiation: significant inhibition of gMDSC differentiation

## CC(=N)NCc1cccc(CN)c1 [1400 W]
[3]
  activation of pStat1 and pStat3 pathways and EMT markers vimentin and twist (Western blot): suppressed the activation of the latter pathways and EMT markers
  mMDSC-induced transcription of IL1A, IL6, TGFB1 and VIM (qPCR): suppress the mMDSC-induced transcription of these genes

## NCCCN(CCCN)/[N+]([O-])=N/O [DPTA]
EMT6 cells; 0.5 mM and 2.5 mM DPTA
  expression of IL1A, IL6, TGFB1 and VIM (qPCR): induced the expressions of indicated genes
EMT6 cells; 0.5 mM or 2.5 mM DPTA
  activation of pStat1 and pStat3 signaling pathways and protein levels of EMT markers vimentin and twist (Western blot): induced the activation of pStat1 and pStat3 signaling pathways and protein levels of EMT markers

## Calprotectin: recombinant complex of the mammalian proteins S100A8 and S100A9
T cell proliferation
  suppression of T cell proliferation by protein treated gMDSCs: suppressed T cell proliferation more efficiently compared to S100A9
EMT6-Luc tumor; [4]
  CD8+ T cells: increase in CD8+ T cells
  primary tumor growth and spontaneous metastasis: enhanced primary tumor growth and spontaneous metastasis to the lungs and liver
EMT6-Luc tumor
  tumor cell killing activity of T cells from treated mice (annexin V+ cells): significantly suppressed the tumor cell killing activity
  levels of caspase 3 mediated apoptosis: reduced

## S100A9: recombinant S100A9 protein, subunit of calprotectin
EMT6-Luc tumor
  tumor cell killing activity of T cells from treated mice (annexin V+ cells): moderate activity
  levels of caspase 3 mediated apoptosis: reduced

B1: S100A8: recombinant S100A8 protein, subunit of calprotectin (protein, UniProt P05109 1-93, looked up)
Protein S100-A8: MLTELEKALNSIIDVYHKYSLIKGNFHAVYRDDLKKLLETECPQYIRKKGADVWFKELDINTDGAVNFQEFLILVIKMGVAAHKKSHEESHKE
T cell proliferation
  suppression of T cell proliferation by protein treated gMDSCs: no significant effect
